In ChEMBL document CHEMBL1201862, “PubChem BioAssay data set” (2004):
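In this assay, cells in 96-well plates receive the compound at five concentrations for 48 hours. Endpoints are linearly interpolated between the surrounding concentrations. GI50 = concentration required for 50% inhibition of growth.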 Active and inactive are the calls of the source. Cut-off read from the data, not from the text of the source: active = GI50 up to about 1.1 µM and inactive = higher.

Experiments:
Assay in all cases: NCI anticancer screen, dose series, 48 h
786-0 = test system: 786-0
A549 = test system: A549
ACHN = test system: ACHN
CAKI-1 = test system: CAKI-1
CCRF-CEM = test system: CCRF-CEM
COLO 205 = test system: COLO 205
DLD-1 = test system: DLD-1
DMS-114 = test system: DMS-114
DMS-273 = test system: DMS-273
EKVX = test system: EKVX
HCC 2998 = test system: HCC 2998
HCT-116 = test system: HCT-116
HL-60 = test system: HL-60
HOP-92 = test system: HOP-92
HT-29 = test system: HT-29
IGROV-1 = test system: IGROV-1
K562 = test system: K562
KM12 = test system: KM12
LXFL 529 = test system: LXFL 529
M19-MEL = test system: M19-MEL
MOLT-4 = test system: MOLT-4
Malme-3M = test system: Malme-3M
NCI-H226 = test system: NCI-H226
NCI-H23 = test system: NCI-H23
NCI-H522 = test system: NCI-H522
OVCAR-3 = test system: OVCAR-3
OVCAR-5 = test system: OVCAR-5
OVCAR-8 = test system: OVCAR-8
RPMI-8226 = test system: RPMI-8226
RXF 393 = test system: RXF 393
SF-268 = test system: SF-268
SF-295 = test system: SF-295
SF-539 = test system: SF-539
SK-MEL-28 = test system: SK-MEL-28
SK-MEL-2 = test system: SK-MEL-2
SK-MEL-5 = test system: SK-MEL-5
SK-OV-3 = test system: SK-OV-3
SN12C = test system: SN12C
SNB-19 = test system: SNB-19
SNB-75 = test system: SNB-75
SNB-78 = test system: SNB-78
SR = test system: SR
SW-620 = test system: SW-620
TK-10 = test system: TK-10
U-251 = test system: U-251
UACC-257 = test system: UACC-257
UACC-62 = test system: UACC-62
UO-31 = test system: UO-31

Measured: GI50

FC(F)(F)c1cccc(C2SCc3nc4ccccc4n32)c1 (stereo not drawn)
inactive: 786-0 61.5 µM | A549 56.1 µM | ACHN 64 µM | CAKI-1 55.2 µM | CCRF-CEM 32.8 µM | COLO 205 > 100 µM | DLD-1 54.2 µM | DMS-114 18.5 µM | DMS-273 41.9 µM | EKVX 73.3 µM | HCC 2998 > 100 µM | HCT-116 38.9 µM | HL-60 5.75 µM | HOP-92 2.41 µM | HT-29 > 100 µM | IGROV-1 33.7 µM | K562 8.61 µM | KM12 68.4 µM | LXFL 529 27.8 µM | M19-MEL > 100 µM | MOLT-4 41.4 µM | Malme-3M > 100 µM | NCI-H226 > 100 µM | NCI-H23 9.79 µM | NCI-H522 17.6 µM | OVCAR-3 56 µM | OVCAR-5 6.32 µM | OVCAR-8 59.3 µM | RPMI-8226 12.9 µM | RXF 393 33.1 µM | SF-268 90.6 µM | SF-295 33.9 µM | SF-539 26.6 µM | SK-MEL-28 65.9 µM | SK-MEL-2 > 100 µM | SK-MEL-5 11 µM | SK-OV-3 26.8 µM | SN12C > 100 µM | SNB-19 51.3 µM | SNB-75 29.8 µM | SNB-78 > 100 µM | SR 44 µM | SW-620 > 100 µM | TK-10 72.3 µM | U-251 62.7 µM | UACC-257 4.54 µM | UACC-62 > 100 µM | UO-31 > 100 µM
